Assay results from US8247211B2, “Glycopeptide antibiotics” (American Cyanamid Company, priority 2001, dated 2012).
Values after ≈ are worked out from the molar mass of the structure shown.

Key:
Experiment in all cases: In vitro antibacterial evaluation: minimum inhibitory concentration (MIC), broth dilution method
Assay type in all cases: cell-based
Staphylococcus sp. = conditions: broth dilution, 18 hours at 35° C.; for MIC Staphylococcus aureus-SMITH (GC 4543): strain SMITH GC 4543
How it was run: (§1)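 Susceptibility determined by NCCLS-recommended broth dilution (M7-A2), Muller-Hinton II […]. Concentration span 64-0.06 μg/mL, inoculum 5×10^5 CFU/mL. Isolates include strains resistant to methicillin, penicillin and/or vancomycin.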

Streptococcus sp. = conditions: broth dilution, 18 hours at 35° C.
How it was run: as §1

Enterococcus sp. = conditions: broth dilution, 18 hours at 35° C.
How it was run: as §1

Escherichia coli = conditions: broth dilution, 18 hours at 35° C.
[1] = Streptococcus agalactiae (GC 4564)
[2] = Streptococcus pneumoniae (ATCC 6301)
[3] = Streptococcus pneumoniae (GC 1894)
[4] = Streptococcus pneumoniae (GC 4565)
[5] = Streptococcus pyogenes (GC 4563)
[6] = Enterococcus faecalis (ATCC 29212)
[7] = Enterococcus faecalis (GC 2242)
[8] = Enterococcus faecalis (GC 2691)
[9] = Enterococcus faecalis (GC 3059)
[10] = Enterococcus faecalis (GC 4552)
[11] = Enterococcus faecalis (GC 4553)
[12] = Enterococcus faecalis (GC 4554)
[13] = Enterococcus faecalis (GC 6189)

CC(c1ccccc1)C1NC(=O)CNC(=O)C(CO)NC(=O)C(C(O)C2CNC(=N)N2C2OC(CO)C(O)C(O)C2O)NC(=O)C(C(O)C2CNC(=N)N2)NC(=O)C(Cc2ccc(O)c(NC(=O)c3ccccc3)c2)NC1=O (stereo not drawn) [Example 17, Cyclo[glycyl-β-methylphenylalanyl-3-(benzamido)tyrosyl-3-(2-iminoimidazolidin-4-yl)seryl-3-(3-hexopyranosyl-2-iminoimidazolidin-4-yl)serylseryl]]
MIC Staphylococcus aureus-SMITH (GC 4543) (Staphylococcus sp.): >64 mg/L | MIC Streptococcus agalactiae (GC 4564) (Streptococcus sp.; [1]): >64 mg/L | MIC Streptococcus pneumoniae (ATCC 6301) (Streptococcus sp.; [2]): >64 mg/L | MIC Streptococcus pneumoniae (GC 1894) (Streptococcus sp.; [3]): 64 mg/L (≈ 58.7 µM) | MIC Streptococcus pneumoniae (GC 4565) (Streptococcus sp.; [4]): >64 mg/L | MIC Streptococcus pyogenes (GC 4563) (Streptococcus sp.; [5]): >64 mg/L | MIC Streptococcus agalactiae (GC 4564) (Streptococcus sp.): >64 mg/L | MIC Streptococcus pneumoniae (ATCC 6301) (Streptococcus sp.): >64 mg/L | MIC Streptococcus pneumoniae (GC 1894) (Streptococcus sp.): 64 mg/L (≈ 58.7 µM) | MIC Streptococcus pneumoniae (GC 4565) (Streptococcus sp.): >64 mg/L | MIC Streptococcus pyogenes (GC 4563) (Streptococcus sp.): >64 mg/L | MIC Enterococcus avium (GC 4558) (Enterococcus sp.; Enterococcus avium (GC 4558)): 64 mg/L (≈ 58.7 µM) | MIC Enterococcus faecalis (ATCC 29212) (Enterococcus sp.; [6]): >64 mg/L | MIC Enterococcus faecalis (GC 2242) (Enterococcus sp.; [7]): >64 mg/L | MIC Enterococcus faecalis (GC 2691) (Enterococcus sp.; [8]): >64 mg/L | MIC Enterococcus faecalis (GC 3059) (Enterococcus sp.; [9]): >64 mg/L | MIC Enterococcus faecalis (GC 4552) (Enterococcus sp.; [10]): >64 mg/L | MIC Enterococcus faecalis (GC 4553) (Enterococcus sp.; [11]): >64 mg/L | MIC Enterococcus faecalis (GC 4554) (Enterococcus sp.; [12]): >64 mg/L | MIC Enterococcus faecalis (GC 6189) (Enterococcus sp.; [13]): >64 mg/L | MIC Enterococcus faecium (GC 2243) (Enterococcus sp.; Enterococcus faecium (GC 2243)): >64 mg/L | MIC Enterococcus faecium (GC 4556) (Enterococcus sp.; Enterococcus faecium (GC 4556)): 64 mg/L (≈ 58.7 µM) | MIC Enterococcus faecium (GC 4557) (Enterococcus sp.; Enterococcus faecium (GC 4557)): 64 mg/L (≈ 58.7 µM) | MIC Enterococcus avium (GC 4558) (Enterococcus sp.): 64 mg/L (≈ 58.7 µM) | MIC Enterococcus faecalis (ATCC 29212) (Enterococcus sp.): >64 mg/L | MIC Enterococcus faecalis (GC 2242) (Enterococcus sp.): >64 mg/L | MIC Enterococcus faecalis (GC 2691) (Enterococcus sp.): >64 mg/L | MIC Enterococcus faecalis (GC 3059) (Enterococcus sp.): >64 mg/L | MIC Enterococcus faecalis (GC 4552) (Enterococcus sp.): >64 mg/L | MIC Enterococcus faecalis (GC 4553) (Enterococcus sp.): >64 mg/L | MIC Enterococcus faecalis (GC 4554) (Enterococcus sp.): >64 mg/L | MIC Enterococcus faecalis (GC 6189) (Enterococcus sp.): >64 mg/L | MIC Enterococcus faecium (GC 2243) (Enterococcus sp.): >64 mg/L | MIC Enterococcus faecium (GC 4556) (Enterococcus sp.): 64 mg/L (≈ 58.7 µM) | MIC Enterococcus faecium (GC 4557) (Enterococcus sp.): 64 mg/L (≈ 58.7 µM) | MIC Escherichia coli (ATCC 25922) (Escherichia coli): 64 mg/L (≈ 58.7 µM) | MIC Escherichia coli (GC 4559) (Escherichia coli): 32 mg/L (≈ 29.4 µM) | MIC Escherichia coli (GC 4560) (Escherichia coli): 16 mg/L (≈ 14.7 µM)

COc1ccc(Oc2cccc(-c3nc4cc(CC5NC(=O)C(C(C)c6ccccc6)NC(=O)CNC(=O)C(CO)NC(=O)C(C(O)C6CNC(=N)N6C6OC(CO)C(O)C(O)C6O)NC(=O)C(C(O)C6CNC(=N)N6)NC5=O)ccc4o3)c2)cc1 (stereo not drawn) [Example 35]
MIC Coagulase Negative Staphylococcus (GC 4547) (Staphylococcus sp.): 8 mg/L (≈ 6.7 µM) | MIC Coagulase Negative Staphylococcus (GC 4548) (Staphylococcus sp.): 8 mg/L (≈ 6.7 µM) | MIC Coagulase Negative Staphylococcus (GC 4549) (Staphylococcus sp.): 8 mg/L (≈ 6.7 µM) | MIC Coagulase Negative Staphylococcus (GC 4551) (Staphylococcus sp.): 8 mg/L (≈ 6.7 µM) | MIC Coagulase Negative Staphylococcus (GC 6257) (Staphylococcus sp.): 2 mg/L (≈ 1.67 µM) | MIC Staphylococcus aureus SMITH (GC 4543) (Staphylococcus sp.): 8 mg/L (≈ 6.7 µM) | MIC Staphylococcus haemolyticus (GC 4546) (Staphylococcus sp.): 8 mg/L (≈ 6.7 µM) | MIC Staphylococcus aureus-SMITH (GC 4543) (Staphylococcus sp.): 8 mg/L (≈ 6.7 µM) | MIC Streptococcus agalactiae (GC 4564) (Streptococcus sp.; [1]): 8 mg/L (≈ 6.7 µM) | MIC Streptococcus pneumoniae (ATCC 6301) (Streptococcus sp.; [2]): 8 mg/L (≈ 6.7 µM) | MIC Streptococcus pneumoniae (GC 1894) (Streptococcus sp.; [3]): 8 mg/L (≈ 6.7 µM) | MIC Streptococcus pneumoniae (GC 4565) (Streptococcus sp.; [4]): 16 mg/L (≈ 13.4 µM) | MIC Streptococcus pyogenes (GC 4563) (Streptococcus sp.; [5]): 2 mg/L (≈ 1.67 µM) | MIC Streptococcus agalactiae (GC 4564) (Streptococcus sp.): 8 mg/L (≈ 6.7 µM) | MIC Streptococcus pneumoniae (ATCC 6301) (Streptococcus sp.): 8 mg/L (≈ 6.7 µM) | MIC Streptococcus pneumoniae (GC 1894) (Streptococcus sp.): 8 mg/L (≈ 6.7 µM) | MIC Streptococcus pneumoniae (GC 4565) (Streptococcus sp.): 16 mg/L (≈ 13.4 µM) | MIC Streptococcus pyogenes (GC 4563) (Streptococcus sp.): 2 mg/L (≈ 1.67 µM) | MIC Enterococcus avium (GC 4558) (Enterococcus sp.; Enterococcus avium (GC 4558)): 8 mg/L (≈ 6.7 µM) | MIC Enterococcus faecalis (ATCC 29212) (Enterococcus sp.; [6]): 16 mg/L (≈ 13.4 µM) | MIC Enterococcus faecalis (GC 2242) (Enterococcus sp.; [7]): 16 mg/L (≈ 13.4 µM) | MIC Enterococcus faecalis (GC 2691) (Enterococcus sp.; [8]): 16 mg/L (≈ 13.4 µM) | MIC Enterococcus faecalis (GC 3059) (Enterococcus sp.; [9]): 32 mg/L (≈ 26.8 µM) | MIC Enterococcus faecalis (GC 4552) (Enterococcus sp.; [10]): 32 mg/L (≈ 26.8 µM) | MIC Enterococcus faecalis (GC 4553) (Enterococcus sp.; [11]): 8 mg/L (≈ 6.7 µM) | MIC Enterococcus faecalis (GC 4554) (Enterococcus sp.; [12]): 32 mg/L (≈ 26.8 µM) | MIC Enterococcus faecalis (GC 6189) (Enterococcus sp.; [13]): 16 mg/L (≈ 13.4 µM) | MIC Enterococcus faecium (GC 2243) (Enterococcus sp.; Enterococcus faecium (GC 2243)): 8 mg/L (≈ 6.7 µM) | MIC Enterococcus faecium (GC 4556) (Enterococcus sp.; Enterococcus faecium (GC 4556)): 32 mg/L (≈ 26.8 µM) | MIC Enterococcus faecium (GC 4557) (Enterococcus sp.; Enterococcus faecium (GC 4557)): 4 mg/L (≈ 3.35 µM) | MIC Enterococcus avium (GC 4558) (Enterococcus sp.): 8 mg/L (≈ 6.7 µM) | MIC Enterococcus faecalis (ATCC 29212) (Enterococcus sp.): 16 mg/L (≈ 13.4 µM) | MIC Enterococcus faecalis (GC 2242) (Enterococcus sp.): 16 mg/L (≈ 13.4 µM) | MIC Enterococcus faecalis (GC 2691) (Enterococcus sp.): 16 mg/L (≈ 13.4 µM) | MIC Enterococcus faecalis (GC 3059) (Enterococcus sp.): 32 mg/L (≈ 26.8 µM) | MIC Enterococcus faecalis (GC 4552) (Enterococcus sp.): 32 mg/L (≈ 26.8 µM) | MIC Enterococcus faecalis (GC 4553) (Enterococcus sp.): 8 mg/L (≈ 6.7 µM) | MIC Enterococcus faecalis (GC 4554) (Enterococcus sp.): 32 mg/L (≈ 26.8 µM) | MIC Enterococcus faecalis (GC 6189) (Enterococcus sp.): 16 mg/L (≈ 13.4 µM) | MIC Enterococcus faecium (GC 2243) (Enterococcus sp.): 8 mg/L (≈ 6.7 µM) | MIC Enterococcus faecium (GC 4556) (Enterococcus sp.): 32 mg/L (≈ 26.8 µM) | MIC Enterococcus faecium (GC 4557) (Enterococcus sp.): 4 mg/L (≈ 3.35 µM) | MIC Escherichia coli (GC 4560) (Escherichia coli): 16 mg/L (≈ 13.4 µM)
